Results: US8937076B2, “Crystalline form of entecavir, its preparation and the pharmaceutical composition and uses thereof” (Zhejiang Medicine Co., Ltd. Xinchang Pharaceutical Factory, priority 2007, dated 2015)

Assay: Solubility at room temperature
Format: physicochemical

Solubility in N,N-dimethylformamide (N. N-dimethylformamide): sparingly soluble | Solubility in dimethyl sulfoxide (dimethyl sulfoxide): soluble | Solubility in ethanol (ethanol): slightly soluble | Solubility in water (water): insoluble
SMILES: C=C1[C@H](CO)[C@@H](O)C[C@@H]1n1cnc2c(=O)[nH]c(N)nc21 [crystalline form of entecavir]
